Like-named read-outs stand apart in the source and are kept apart here.
Legend:
[1] = molecular target: SV40 large TAg (T-antigen) (Simian virus 40, UniProt P03070); assay: biochemical; parameters: species or system SV40 (simian virus 40); conditions: DNA unwinding
[2] = test system: S. cerevisiae ∆erg6 mcm4chaos3 (UPY1056); assay: Yeast growth inhibition, 96-well assay, ∆erg6 mcm4chaos3 strain; type: cell-based; conditions: Saccharomyces cerevisiae; growth over 24 h
Mcm2-7 = test system: T1, Mcm2-7; assay: ssDNA double filter-binding assay, Mcm2-7; parameters: species or system Saccharomyces cerevisiae; conditions: 1 mM compound, 150 nM helicase
T1 construct: made in house; host or cells: baculovirus-infected insect cells

Mcm467 = molecular target: T2, Mcm467 (Saccharomyces cerevisiae, UniProt P30665+P38132+P53091); assay: ssDNA double filter-binding assay, Mcm467; conditions: 1 mM compound, 150 nM helicase
T2 construct: made in house; host or cells: baculovirus-infected insect cells

SV40 large TAg = molecular target: T3, SV40 large TAg (Simian virus 40, UniProt P03070); assay: ssDNA double filter-binding assay, TAg; parameters: species or system SV40 (simian virus 40); conditions: 1 mM compound, 150 nM helicase
T3 construct: made in house

[3] = molecular target: T4, SsoMcm (Sulfolobus solfataricus Mcm protein) complex (Saccharolobus solfataricus, UniProt Q9UXG1); assay: SsoMcm helicase assay; type: biochemical; conditions: 1 mM, 65°C, Figure S3
T4 sequence (Q9UXG1 1-686): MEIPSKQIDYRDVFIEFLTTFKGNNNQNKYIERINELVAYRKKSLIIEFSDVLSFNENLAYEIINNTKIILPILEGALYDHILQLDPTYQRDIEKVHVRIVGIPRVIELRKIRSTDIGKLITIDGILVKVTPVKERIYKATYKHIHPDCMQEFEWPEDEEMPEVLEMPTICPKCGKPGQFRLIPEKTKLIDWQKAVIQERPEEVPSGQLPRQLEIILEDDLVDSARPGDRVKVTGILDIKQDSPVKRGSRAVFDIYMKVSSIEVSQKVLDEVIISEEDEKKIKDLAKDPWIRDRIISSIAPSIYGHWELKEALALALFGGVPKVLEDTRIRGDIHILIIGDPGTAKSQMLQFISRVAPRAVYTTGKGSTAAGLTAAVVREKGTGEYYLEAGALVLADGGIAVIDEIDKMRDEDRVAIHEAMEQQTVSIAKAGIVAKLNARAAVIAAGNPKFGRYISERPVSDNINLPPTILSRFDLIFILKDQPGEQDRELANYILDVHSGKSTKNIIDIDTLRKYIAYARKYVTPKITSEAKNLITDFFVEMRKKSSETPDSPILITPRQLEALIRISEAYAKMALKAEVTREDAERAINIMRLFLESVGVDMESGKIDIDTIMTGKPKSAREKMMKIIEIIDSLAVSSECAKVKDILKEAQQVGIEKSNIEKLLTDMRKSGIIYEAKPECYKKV
Procedure: Helicase assays were performed essentially as described. Synthetic replication forks were prepared by annealing oligos 233 and 235 [IDT (Coralville), oligo 233 5′(T)40[…]; oligo 235 5′ […](T)40] and then filling in the recessed 3′-end with [α32P]dATP and unlabelled dNTPs using Klenow Fragment. Briefly, reactions ([…]) were performed in 1× helicase assay buffer [20 mM Tris/HCl (pH 7.5), 10 mM MgOAc, 20% (v/v) glycerol, 100 μM EDTA and 5 mM DTT (dithiothreitol)] and contained a final concentration of 1 nM fork substrate, 5 mM ATP, 40 mM creatine phosphate, […] creatine kinase, 33 μg/ml BSA. Reactions containing Mcm2-7 and Mcm467 were supplemented with 200 mM potassium glutamate. Reactions containing SsoMcm were incubated at 65°C, those containing T4 gp41 were incubated for 30 min at 37°C, and all other reactions were incubated at 37°C for 1 h. The products were separated by 10% (w/v) native PAGE, the resulting gels dried and the radioactivity quantified using a Fuji FLA-5100 phosphoimager. […] ATP was separated from ADP by PEI (polyethyleneimine) thin layer chromatography, and the ratio of ATP:ADP was quantified using a Fuji FLA-5100 phosphoimager. […] Protein–ssDNA binding was determined with a double filter-binding assay using an ssDNA probe (oligo 826, 5′[…]) that was 5′-radiolabelled using T4 polynucleotide kinase and [γ32P]ATP [16]. […]

SV40 large TAg (T-antigen), sequence (P03070 whole entry, looked up): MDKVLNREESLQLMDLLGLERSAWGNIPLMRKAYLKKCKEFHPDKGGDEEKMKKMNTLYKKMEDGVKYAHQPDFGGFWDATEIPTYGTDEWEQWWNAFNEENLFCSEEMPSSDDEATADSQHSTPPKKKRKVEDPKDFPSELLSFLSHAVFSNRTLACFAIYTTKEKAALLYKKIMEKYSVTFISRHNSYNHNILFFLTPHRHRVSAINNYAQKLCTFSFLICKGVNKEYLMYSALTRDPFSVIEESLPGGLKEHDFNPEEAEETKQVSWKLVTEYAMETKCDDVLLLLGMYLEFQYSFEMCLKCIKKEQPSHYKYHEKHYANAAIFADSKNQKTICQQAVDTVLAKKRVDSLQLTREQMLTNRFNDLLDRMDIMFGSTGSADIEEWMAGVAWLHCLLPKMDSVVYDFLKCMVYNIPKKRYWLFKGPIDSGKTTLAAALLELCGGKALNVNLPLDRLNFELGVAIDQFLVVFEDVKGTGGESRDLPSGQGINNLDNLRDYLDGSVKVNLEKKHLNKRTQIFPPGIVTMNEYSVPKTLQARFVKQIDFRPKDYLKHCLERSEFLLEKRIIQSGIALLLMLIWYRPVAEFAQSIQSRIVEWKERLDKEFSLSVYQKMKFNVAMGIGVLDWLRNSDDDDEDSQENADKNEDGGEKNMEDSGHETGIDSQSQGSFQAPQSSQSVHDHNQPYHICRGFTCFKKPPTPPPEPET
T2 sequence (P30665 whole entry): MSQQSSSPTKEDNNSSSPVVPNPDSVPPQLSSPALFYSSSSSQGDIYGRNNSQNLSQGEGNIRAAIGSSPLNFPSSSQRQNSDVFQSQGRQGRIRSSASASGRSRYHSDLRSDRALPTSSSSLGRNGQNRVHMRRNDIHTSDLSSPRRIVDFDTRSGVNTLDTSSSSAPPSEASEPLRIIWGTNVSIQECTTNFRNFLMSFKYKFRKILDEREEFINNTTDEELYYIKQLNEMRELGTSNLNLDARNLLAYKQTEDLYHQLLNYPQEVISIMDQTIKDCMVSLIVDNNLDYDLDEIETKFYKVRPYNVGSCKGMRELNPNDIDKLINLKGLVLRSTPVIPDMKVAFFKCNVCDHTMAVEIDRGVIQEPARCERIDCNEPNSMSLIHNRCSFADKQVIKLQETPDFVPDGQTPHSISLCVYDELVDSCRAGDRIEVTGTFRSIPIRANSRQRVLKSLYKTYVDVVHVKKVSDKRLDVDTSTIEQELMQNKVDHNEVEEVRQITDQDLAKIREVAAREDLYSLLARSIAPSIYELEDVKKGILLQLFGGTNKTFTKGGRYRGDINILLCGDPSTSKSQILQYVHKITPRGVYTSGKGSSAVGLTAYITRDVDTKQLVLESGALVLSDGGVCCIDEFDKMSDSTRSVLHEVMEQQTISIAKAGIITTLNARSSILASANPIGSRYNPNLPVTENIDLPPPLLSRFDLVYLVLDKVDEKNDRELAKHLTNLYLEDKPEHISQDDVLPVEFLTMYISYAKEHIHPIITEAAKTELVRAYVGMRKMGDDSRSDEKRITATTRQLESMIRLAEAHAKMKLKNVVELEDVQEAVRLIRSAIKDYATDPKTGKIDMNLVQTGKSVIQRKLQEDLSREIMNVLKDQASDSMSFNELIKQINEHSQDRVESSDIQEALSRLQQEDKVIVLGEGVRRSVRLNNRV
T2 sequence (P53091 whole entry): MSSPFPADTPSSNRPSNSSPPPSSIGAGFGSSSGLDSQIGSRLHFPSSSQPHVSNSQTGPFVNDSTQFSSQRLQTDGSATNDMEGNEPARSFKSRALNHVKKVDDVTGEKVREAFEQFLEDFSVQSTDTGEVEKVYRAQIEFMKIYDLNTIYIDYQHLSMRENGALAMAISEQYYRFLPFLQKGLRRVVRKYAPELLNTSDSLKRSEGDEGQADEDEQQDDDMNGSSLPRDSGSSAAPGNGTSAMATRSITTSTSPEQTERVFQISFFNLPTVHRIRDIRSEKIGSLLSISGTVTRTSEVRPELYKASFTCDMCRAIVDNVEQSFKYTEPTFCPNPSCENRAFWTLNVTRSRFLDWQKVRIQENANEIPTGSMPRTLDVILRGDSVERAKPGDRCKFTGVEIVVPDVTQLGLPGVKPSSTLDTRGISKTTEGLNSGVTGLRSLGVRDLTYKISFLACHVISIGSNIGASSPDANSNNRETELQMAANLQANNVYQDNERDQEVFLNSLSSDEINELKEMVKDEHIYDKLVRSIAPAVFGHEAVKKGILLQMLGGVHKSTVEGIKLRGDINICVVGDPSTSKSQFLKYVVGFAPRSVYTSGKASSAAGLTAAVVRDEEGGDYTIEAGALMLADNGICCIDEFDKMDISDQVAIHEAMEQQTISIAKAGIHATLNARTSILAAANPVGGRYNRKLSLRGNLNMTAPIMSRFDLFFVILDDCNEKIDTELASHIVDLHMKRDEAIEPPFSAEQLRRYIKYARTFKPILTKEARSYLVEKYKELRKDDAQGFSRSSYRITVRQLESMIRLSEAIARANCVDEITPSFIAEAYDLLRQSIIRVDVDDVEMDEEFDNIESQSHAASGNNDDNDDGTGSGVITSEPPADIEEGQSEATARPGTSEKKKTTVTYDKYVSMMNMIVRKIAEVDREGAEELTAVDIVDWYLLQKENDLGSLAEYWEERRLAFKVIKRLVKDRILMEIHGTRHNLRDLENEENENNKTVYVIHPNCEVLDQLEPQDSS
T2 sequence (P38132 whole entry): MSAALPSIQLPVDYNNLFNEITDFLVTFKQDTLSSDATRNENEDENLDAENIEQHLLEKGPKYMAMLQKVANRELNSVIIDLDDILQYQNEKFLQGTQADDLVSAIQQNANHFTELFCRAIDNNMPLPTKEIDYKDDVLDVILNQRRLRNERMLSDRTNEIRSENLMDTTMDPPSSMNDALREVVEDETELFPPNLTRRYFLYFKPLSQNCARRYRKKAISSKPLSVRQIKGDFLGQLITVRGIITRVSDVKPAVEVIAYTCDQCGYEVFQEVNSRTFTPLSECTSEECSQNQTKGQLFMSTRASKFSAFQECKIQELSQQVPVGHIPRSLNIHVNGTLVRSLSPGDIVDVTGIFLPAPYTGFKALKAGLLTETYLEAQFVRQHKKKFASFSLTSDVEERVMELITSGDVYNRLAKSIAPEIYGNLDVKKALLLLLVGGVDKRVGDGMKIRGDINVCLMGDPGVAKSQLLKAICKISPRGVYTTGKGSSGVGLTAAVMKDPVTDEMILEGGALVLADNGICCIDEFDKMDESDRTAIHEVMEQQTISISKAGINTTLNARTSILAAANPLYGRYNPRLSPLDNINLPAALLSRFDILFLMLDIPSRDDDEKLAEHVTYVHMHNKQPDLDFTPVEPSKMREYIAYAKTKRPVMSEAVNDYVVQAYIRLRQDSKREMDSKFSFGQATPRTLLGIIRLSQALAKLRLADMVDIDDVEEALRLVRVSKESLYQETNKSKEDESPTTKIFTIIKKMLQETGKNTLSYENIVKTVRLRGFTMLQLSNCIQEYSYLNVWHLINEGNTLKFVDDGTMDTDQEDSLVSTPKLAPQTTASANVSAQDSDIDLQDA
T3 sequence (P03070 whole entry): as the sequence (P03070 whole entry, looked up) above

O=C(O)c1cn(C2CC2)c2cc(N3CCNCC3)c(F)cc2c1=O [Ciprofloxacin, ciprofloxacin, reference compound]
IC50 ([1]; 100 nM complex, read-out: IC50 TAg helicase activity): 4 mM | IC50 ([1]; 100 nM hexamer, inhibitor preincubation, […], read-out: IC50 T-antigen): 4.01 mM | IC50 [2]: 1.3 mM | effect on ssDNA binding of Mcm2-7 (Mcm2-7): only modest effects | effect on ssDNA binding of Mcm467 (Mcm467): only modest effects | effect on ssDNA binding of TAg (SV40 large TAg): only modest effects | inhibition of SsoMcm helicase [3]: none of the tested helicases were substantially inhibited

From PMC3791872 (Bioscience Reports, 2013)
